Starred links: 1 amine or outer side, 2 acyl side, 3 side chain; linkers in the order of their positions; H or OH if unused. Non-standard residues stand in square brackets, D forms with d. Residues, ends and D or L forms follow the SMILES beside them. *: point of attachment. X1 = CC(C)C(C[C@H](O)[C@H](CC1CCCCC1)N[*:1])C(=O)[*:2]; NHCH2(2-pyridyl) = c1ccc(CN*)nc1; Boc = CC(C)(C)OC(=O)*; Aib = CC(C)(N)C(=O)O
Biological target: T1, purified HIV protease (Human immunodeficiency virus type 1 group M subtype B, UniProt P04585)
T1 construct: purified HIV protease was incubated with synthetic peptide
Experiment: HIV-specific protease enzyme test (RP-HPLC analysis of cleavage of a synthetic Gag peptide)
Assay type: biochemical
Conditions: substance concentration causing 50% inhibition of protease activity; synthetic peptide substrate imitating Gag cleavage site
Description: The results of the examples shown below were determined by the HIV test system described in the following references [compare Hansen, J., Billich, S., Schulze, T., Sukro, S. and Molling, K. (1988), EMBO Journal, Vol. 7, No. 6, pp. 1785-1791]: purified HIV protease was incubated with synthetic peptide which imitates a cleavage site in the Gag precursor protein and represents an in vivo cleavage site of the HIV protease. The resulting cleavage products of the synthetic peptide were analyzed by means of Reverse Phase High Performance Liquid Chromatography (RP-HPLC). The IC50 values indicated relate to the substance concentration which causes a 50% inhibition of the protease activity under the abovementioned test conditions.

Work on `CC[C@H](C)[C@H](NC(=O)C(C[C@H](O)[C@H](CC1CCCCC1)NC(=O)[C@@H](NC(=O)C(C)(C)NC(=O)OC(C)(C)C)C(C)C)C(C)C)C(=O)NCc1ccccn1` (some centres unmarked) [V] yielded an IC50 of 50 nM.

`CC[C@H](C)[C@H](NC(=O)C(C[C@H](O)[C@H](CC1CCCCC1)NC(=O)[C@H](CC(N)=O)NC(=O)C(C)(C)NC(=O)OC(C)(C)C)C(C)C)C(=O)NCc1ccccn1` (stereo partly drawn) [Example I, Nα-{Nδ-{Nα-{1-[2-(1,1-dimethylethoxycarbonyl)amino-2-methyl]propanoyl}-(S)-asparaginyl}-1-[5-(S)-amino-6-cyclohexyl-4-(S)-hydroxy-2-(1-methyl)ethyl]-hexanoyl}-(S)-isoleucinyl-2-pyridylmethylamide] was tested, and the IC50 was 500 nM.

`CC[C@H](C)[C@H](NC(=O)C(C[C@H](O)[C@H](CC1CCCCC1)NC(=O)C(C)(C)NC(=O)OC(C)(C)C)C(C)C)C(=O)NCc1ccccn1` (stereo partly drawn) [Example IV, Nα-{Nδ-{1-[2-(1,1-dimethylethoxycarbonyl)amino-2-methyl]propanoyl}-1-[5-(S)-amino-6-cyclohexyl-4-(S)-hydroxy-2-(1-methyl)ethoyl]hexanoyl}-(S)-isoleucinyl-2-pyridylmethylamide] was tested, and the IC50 was 100 nM.

`CC[C@H](C)[C@H](NC(=O)C(C[C@H](O)[C@H](CC1CCCCC1)NC(=O)[C@H](CC(N)=O)NC(=O)[C@H](Cc1ccccc1)NC(=O)C(C)(C)NC(=O)OC(C)(C)C)C(C)C)C(=O)NCc1ccccn1` (some centres unmarked) [II] (Boc-[Aib]FN[X1]I-{NHCH2(2-pyridyl)}) was tested, and the IC50 was 50 nM.

Work on `CC[C@H](C)[C@H](NC(=O)C(C[C@H](O)[C@H](CC1CCCCC1)NC(=O)[C@H](CC(N)=O)NC(=O)[C@H](Cc1ccccc1)NC(=O)[C@H](CO)NC(=O)C(C)(C)NC(=O)OC(C)(C)C)C(C)C)C(=O)NCc1ccccn1` (some centres unmarked) [III] (Boc-[Aib]SFN[X1]I-{NHCH2(2-pyridyl)}) yielded an IC50 of 5 nM.

From US5145951A, “Peptides retroviral protease inhibitors comprising 2-amino-2-methylpropionic acid” (priority 1990, dated 1992)
